From patent US20100011610A1, “FLUIDIZED SPRAY DRYING” (Vertex Pharmaceuticals Incorporated, priority 2006, published 2010)

Assay: in vivo
Conditions: rat, po

CCC[C@H](NC(=O)[C@@H]1[C@H]2CCC[C@H]2CN1C(=O)[C@@H](NC(=O)[C@@H](NC(=O)c1cnccn1)C1CCCCC1)C(C)(C)C)C(=O)C(=O)NC1CC1 [VX-950, Telaprevir]
bioavailability: < 0.5%
